Data reported in the supplement of paper PMC5908809.

How the values were obtained:
NK-92 (IL-2 2.5 ng/mL) [1] = test: drug sensitivity score (DSS) (DSS units); higher = more sensitive; extreme values may be limits of the assay; conditions: 72 h
[2] = system: normal primary NK cells, pool 1 (3 donors) (IL-2 2.5 ng/mL); test: as above; conditions: 72 h
[3] = system: normal primary NK cells, pool 3 (3 donors) (IL-2 2.5 ng/mL); test: as above; conditions: 72 h
IMC-1 (IL-2 20 ng/mL) [4] = test: as above; conditions: 72 h
[5] = system: normal primary NK cells, pool 2 (3 donors) (IL-2 2.5 ng/mL); test: as above; conditions: 72 h
NKL (IL-2 2.5 ng/mL) [6] = test: as above; conditions: 72 h
KAI3 (IL-2 2.5 ng/mL) [7] = test: as above; conditions: 72 h
[8] = system: normal primary NK cells, pool 1 (3 donors), resting (IL-2 0 ng/mL); test: as above; conditions: 72 h
SNK-6 (IL-2 2.5 ng/mL) [9] = test: as above; conditions: 72 h
DERL-7 (IL-2 2.5 ng/mL) [10] = test: as above; conditions: 72 h
YT (IL-2 2.5 ng/mL) [11] = test: as above; conditions: 72 h
NK-YS (IL-2 2.5 ng/mL) [12] = test: as above; conditions: 72 h
KHYG-1 (IL-2 2.5 ng/mL) [13] = test: as above; conditions: 72 h
NK-92 (IL-2 2.5 ng/mL) [14] = test: percent inhibition of viability; higher = more inhibition; conditions: 72 h
[15] = system: normal primary NK cells, pool 1 (3 donors) (IL-2 2.5 ng/mL); test: as above; conditions: 72 h
[16] = system: normal primary NK cells, pool 3 (3 donors) (IL-2 2.5 ng/mL); test: as above; conditions: 72 h
IMC-1 (IL-2 20 ng/mL) [17] = test: as above; conditions: 72 h
[18] = system: normal primary NK cells, pool 2 (3 donors) (IL-2 2.5 ng/mL); test: as above; conditions: 72 h
NKL (IL-2 2.5 ng/mL) [19] = test: as above; conditions: 72 h
KAI3 (IL-2 2.5 ng/mL) [20] = test: as above; conditions: 72 h
[21] = system: normal primary NK cells, pool 1 (3 donors), resting (IL-2 0 ng/mL); test: as above; conditions: 72 h
SNK-6 (IL-2 2.5 ng/mL) [22] = test: as above; conditions: 72 h
DERL-7 (IL-2 2.5 ng/mL) [23] = test: as above; conditions: 72 h
YT (IL-2 2.5 ng/mL) [24] = test: as above; conditions: 72 h
NK-YS (IL-2 2.5 ng/mL) [25] = test: as above; conditions: 72 h
KHYG-1 (IL-2 2.5 ng/mL) [26] = test: as above; conditions: 72 h
[27] = system: normal NK cells expanded with K562-aAPC; test: as above; conditions: 72 h, IL-2 2.5 ng/mL
Protocol: (§1)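 Drug sensitivity and resistance testing on K562-aAPC-expanded normal NK cells: 5 concentrations (10-fold steps over a 10,000-fold range), 72 h at 37 °C, viability by CellTiter-Glo normalised to DMSO and benzethonium chloride controls; DSS from the fitted curve.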

[28] = system: normal NK cells expanded with K562-aAPC; test: drug sensitivity score (DSS) (DSS units); higher = more sensitive; extreme values may be limits of the assay; conditions: 72 h; IL-2 2.5 ng/mL
Protocol: as §1

CCc1cncnc1N1CCN(Cc2nc3ccc(C(F)(F)F)cc3[nH]2)CC1 (max concentration tested 10000 nM)
Conditions | drug sensitivity score
DERL-7 (IL-2 2.5 ng/mL) [10] | 0.17
IMC-1 (IL-2 20 ng/mL) [4] | 6.88
KAI3 (IL-2 2.5 ng/mL) [7] | 1.03
KHYG-1 (IL-2 2.5 ng/mL) [13] | 5.08
NK-92 (IL-2 2.5 ng/mL) [1] | 5.84
NK-YS (IL-2 2.5 ng/mL) [12] | 4.07
NKL (IL-2 2.5 ng/mL) [6] | 5.1
SNK-6 (IL-2 2.5 ng/mL) [9] | 6.35
YT (IL-2 2.5 ng/mL) [11] | 3.86
[2] | 5.45
[3] | 0.75
[5] | 3.74
[8] | 6.44
[28] | 0

percent inhibition of viability [%]
Conditions | 1 nM | 10 nM | 100 nM | 1000 nM | 10000 nM
DERL-7 (IL-2 2.5 ng/mL) [23] | 3.43 | 7.18 | -5.16 | -1.27 | 14.8
IMC-1 (IL-2 20 ng/mL) [17] | -6.13 | -3.43 | 3.72 | 11.3 | 90
KAI3 (IL-2 2.5 ng/mL) [20] | -0.12 | -5.66 | -9.54 | -2.26 | 28.4
KHYG-1 (IL-2 2.5 ng/mL) [26] | -4.31 | -8.31 | -0.12 | 17.2 | 49.7
NK-92 (IL-2 2.5 ng/mL) [14] | -1.05 | 10.1 | 6.83 | 20.4 | 62.3
NK-YS (IL-2 2.5 ng/mL) [25] | -2.32 | -5.55 | -2.77 | 9.57 | 47.8
NKL (IL-2 2.5 ng/mL) [19] | -11.3 | -11 | -6.3 | 10.8 | 60.8
SNK-6 (IL-2 2.5 ng/mL) [22] | -7.09 | -9.08 | 8.29 | 30.2 | 30.4
YT (IL-2 2.5 ng/mL) [24] | -1.53 | -2.69 | 2.06 | 11.5 | 41.9
[15] | -2.5 | 14.2 | 12.3 | 11.8 | 63.6
[16] | -9.93 | 7.71 | 7.04 | -6.89 | 26.4
[18] | -7.09 | 4.46 | 7.58 | 8.67 | 44.9
[21] | -8.97 | 13.4 | 10 | 13.6 | 75.6
[27] | -4.68 | -5.08 | -4.29 | 0.89 | 5

COCC(=O)NC/C=C/c1ccc2ncnc(Nc3ccc(Oc4ccc(C)nc4)c(C)c3)c2c1 (max concentration tested 10000 nM)
Conditions | drug sensitivity score
DERL-7 (IL-2 2.5 ng/mL) [10] | 2.95
IMC-1 (IL-2 20 ng/mL) [4] | 3.25
KAI3 (IL-2 2.5 ng/mL) [7] | 5.41
KHYG-1 (IL-2 2.5 ng/mL) [13] | 1.16
NK-92 (IL-2 2.5 ng/mL) [1] | 7.15
NK-YS (IL-2 2.5 ng/mL) [12] | 1.75
NKL (IL-2 2.5 ng/mL) [6] | 4.55
SNK-6 (IL-2 2.5 ng/mL) [9] | 3.37
YT (IL-2 2.5 ng/mL) [11] | 4.08
[2] | 0.09
[3] | 0.05
[5] | 2.13
[8] | 6.9
[28] | 0

percent inhibition of viability [%]
Conditions | 1 nM | 10 nM | 100 nM | 1000 nM | 10000 nM
DERL-7 (IL-2 2.5 ng/mL) [23] | -3.08 | -0.4 | -4.63 | 9.9 | 33
IMC-1 (IL-2 20 ng/mL) [17] | -0.96 | -1.82 | -0.25 | 1.87 | 55.9
KAI3 (IL-2 2.5 ng/mL) [20] | 16.4 | 7.76 | 7.06 | 11.1 | 64.8
KHYG-1 (IL-2 2.5 ng/mL) [26] | -2.05 | -5.21 | -2.56 | -1.27 | 29.4
NK-92 (IL-2 2.5 ng/mL) [14] | 1.59 | 8.37 | 6.53 | 22.8 | 75
NK-YS (IL-2 2.5 ng/mL) [25] | -0.22 | 0.49 | 1.46 | 4.98 | 25.6
NKL (IL-2 2.5 ng/mL) [19] | 1.03 | -1.8 | 0.69 | 8.06 | 58.8
SNK-6 (IL-2 2.5 ng/mL) [22] | -0.22 | -18.4 | -12.7 | -1.13 | 63.7
YT (IL-2 2.5 ng/mL) [24] | 3.6 | -0.32 | 0.57 | 9.46 | 48.2
[15] | -12 | -6.34 | -1.36 | -3.88 | 14.2
[16] | -5.66 | 4.44 | 4.87 | 10.9 | 5.97
[18] | 1.3 | 6.76 | -0.67 | 11.9 | 23.1
[21] | 14.9 | 9.42 | 15.7 | 21.2 | 61
[27] | -7.95 | -1.69 | -8 | -3.66 | 3.1
